1 compound from patent EP0375183A1, “Antiviral dimers and trimers” (SCHERING CORPORATION, priority 1988, dated 1990) can be followed below.

For the experiment, the system named is strain HIV-III of the Human Immunodeficiency virus (HIV). Nature of the experiment: Protection of HIV-infected human lymphocyte cell lines from virus destruction (syncytia formation, cell rounding/cytopathology), microtiter test. As to conditions: Human immunodeficiency virus 1, Lymphocyte, continuous cell lines derived from human lymphocytes infected with HIV, incubated 7 to 14 days, microscopic inspection, tests (a) and (b), read-out: Protection of Cells. It counts as cell-based. As for the experimental part: Continuous cell lines derived from human lymphocytes are grown in a microtiter test system. The cells are infected with strain […] of the Human Immunodeficiency virus (HIV), a standard strain isolated from a patient with Acquired Immune Deficiency Syndrome (AIDS). The treated cells are incubated for 7 to 14 days, and the treated cells are inspected by microscope to determine (a) prevention of synctia (cell to cell fusion) formation induced by HIV, or (b) prevention of cell rounding and prevention of HIV caused cytopathology. Such inspections indicate the ability of the compound to prevent cell killing by the virus. Additionally, biochemical determination of the cell media is made to ascertain the ability of the compound to prevent formation of viral products (reverse transcriptase, p24 antigen, or other products), and prevention of formation of more HIV itself.
The control refers to the treatment without a compound of the present invention.

`Cc1cn([C@H]2C[C@H](N=[N+]=[N-])[C@@H](COP(=O)(O)OCC3CCC(n4cnc5c(N)ncnc54)C3)O2)c(=O)[nH]c1=O` (some centres unmarked) [Compound of Example 1, 5′-O-[[[3-(6-Amino-9H-purin-9-yl)cyclopentyl]methoxy]hydroxyphosphinyl]-3′-azido-3′-deoxy-thymidine]: the inhibition at 32 µg/mL (Concentration 32 µg/ml) stood at 100%. Moreover, the inhibition at 100 µg/mL (Concentration 100 µg/ml) was determined as 100%.
